Experimental data: paper PMC10300901, “Anticancer Activity and Mode of Action of Cu(II), Zn(II), and Mn(II) Complexes with 5-Chloro-2-N-(2-quinolylmethylene)aminophenol” (Molecules, 2023)
Where two headings read alike, the source gives them in different places.

What was measured:
[1] = system: A549 cells; experiment: MTT cytotoxicity assay, A549
Procedure: (§2) The cytotoxicity of C1–C3 was determined using an MTT (3-(4,5-dimethylthiazol-2-yl)-2,5-diphenyltetrazolium bromide) assay on various cancer cells.

[2] = system: Hela; experiment: MTT cytotoxicity assay, Hela; type: cell-based
Procedure: as §2

[3] = system: cisplatin-resistant lung cancer (A549cisR) cells; experiment: MTT cytotoxicity assay, A549cisR; type: cell-based
Procedure: as §2

[4] = system: MCF-7; experiment: MTT cytotoxicity assay, MCF-7; type: cell-based
Procedure: as §2

[5] = system: WI-38; experiment: MTT cytotoxicity assay, WI-38; type: cell-based
Procedure: as §2

[6] = system: A549 cells; experiment: Measurement of cellular ROS (H2DCF-DA, flow cytometry); type: cell-based; conditions: 4 μM and 8 μM, 24 h, vs control
Procedure: A change in the mitochondrial membrane potential results in mitochondrial dysfunction, which can induce reactive oxygen species (ROS) production. Based on the above information, we detected the ROS level in A549 cells using flow cytometry.
The ROS in A549 cells was analyzed by flow cytometry. After pretreatment with C1 (4 μM and 8 μM) for 24 h, the A549 cells were collected and stained with H2DCF-DA. After 20 min, the samples were measured using a flow cytometer.

[7] = system: A549 cells; experiment: Wound-healing assay (cell migration); type: cell-based; conditions: 2 μM and 4 μM, 24 h
Procedure: (§1) Cell migration is crucial to cancer development and metastasis; metastasis is a major cause of many cancer-related deaths. The migration is very usually assessed by the application of the wound-healing assay, which involves the creation of an artificial gap in a cancer cell monolayer, followed by observation of the area covered with migrating cells. Therefore, the inhibiting effect of C1 on cancer cell migration was evaluated using a wound-healing assay. […] In addition, the effect of C1 on A549 cell invasion was investigated using a transwell assay.
To evaluate the impact of C1 on cell migration, a wound-healing assay was carried out. A549 cells were seeded into 6-well plates and incubated overnight at 37 °C. C1 was dissolved in saline. Subsequently, scratch wounds were performed in the monolayer of cells using sterile toothpicks, and then the cells were treated with the Cu complex (2 μM and 4 μM). The cells were captured using an inverted microscope at 0 and 24 h.

[8] = system: A549 cells; experiment: Cell apoptosis analysis (Annexin V/PI, flow cytometry); type: cell-based; conditions: 24 h, control 4.0%
Procedure: Then, the effect of C1 on A549 cells apoptosis was stained with Annexin V/PI and analyzed using flow cytometry.
The A549 cells were placed in 6-well plates and incubated overnight. The cells were treated with C1 (4 μM and 8 μM) and incubated for 24 h. Subsequently, the cells were harvested and stained with Annexin V/PI for 20 min. The samples were detected by flow cytometry.

[9] = system: A549 cells; experiment: Mitochondrial membrane potential (JC-1, flow cytometry); type: cell-based; conditions: C1 8 μM, 24 h
Procedure: Mitochondria play a key role in death signals through intrinsic and extrinsic apoptosis. Therefore, after exposure to C1, A549 cells were stained with a JC-1 probe to evaluate the mitochondrial membrane potential (ΔΨm) using flow cytometry.
Exponentially growing A549 cells were cultured in 6-well plates. Subsequently, C1 (4 μM and 8 μM) was exposed to the cells for 24 h. The cells were stained with JC-1 probe and analyzed by flow cytometry.

[10] = system: A549 cells; experiment: Cell cycle analysis (PI, flow cytometry); type: cell-based; conditions: 48 h
Procedure: The influence of metal compounds on cell cycle arrest contributes to their anticancer activity. To determine the effect of C1 on the cell cycle, the distribution of the cell cycle of C1-treated A549 cells was detected using flow cytometry.
The A549 cells were seeded into 10 cm dishes and incubated overnight. Subsequently, the cells were treated with C1 (4 μM and 8 μM). After 48 h, the cells were collected, fixed with 75% ethanol overnight, stained with PI for 20 min, and measured by flow cytometry.

[11] = system: A549 tumor; experiment: In vivo antitumor experiment in mice bearing A549 tumors; parameters: species or system BALB/C nude mice; conditions: for Tumor growth inhibition rate: two weeks, mice bearing A549 tumors
Procedure: Based on these promising biological properties, the in vivo therapeutic efficacy of C1 was further investigated in mice bearing A549 tumors. […] Generally, body weight change is considered a key indicator of systemic toxicity.
In addition, TUNEL (terminal deoxynucleotidyl transferase dUTP nick end labeling) staining of tumor tissue sections was performed to examine the effect of C1 on apoptosis in vivo. […] Histological analyses were carried out using H&E (hematoxylin and eosin) staining to evaluate the toxicity of C1 for the major organ.
BALB/C nude mice (6–8 weeks old, 18–22 g) were purchased from Hunan SJA Laboratory Animal Co., Ltd. An amount of 200 μL of A549 cells (containing 2 × 10^6 cells) were subcutaneously injected into the left flank of the mice. The mice were randomly divided into 3 groups when the average tumor size reached 100 mm^3. Then, the mice were treated with saline and C1 (2.5 and 5 mg/kg) for two weeks. C1 was dissolved in saline. During the treatment, the tumor volume and body weight of mice were measured every two days. The major organs (heart, kidney, and liver) and tumor tissues were harvested and sliced for H&E staining and TUNEL staining, respectively.

[12] = Solubility in saline (0.9% sodium chloride solution); type: physicochemical
[13] = system: A549 cells; experiment: β-Galactosidase staining assay (senescence); type: cell-based; conditions: 24 h treatment
Procedure: Senescence is a permanent cellular stage involving cell cycle arrest, which is a potential strategy against cancer. We measured the impact of C1 on cell senescence in A549 cells using a β-galactosidase staining assay. The senescent cells were dyed blue by β-galactosidase.
A549 cells were cultured in 6-well plates and incubated overnight. After C1 treatment for 24 h, the cells were fixed. Then, 20 min later, the cells were washed and stained with β-galactosidase for 48 h. The stained cells were observed and captured using an inverted microscope.

[14] = system: A549 cells; experiment: Comet assay (DNA damage); type: cell-based
Procedure: Excessive intracellular ROS can cause DNA damage and cell death. Next, a comet assay was performed to determine whether C1 caused DNA damage. Undamaged DNA cannot migrate, and fluorescence is only confined to the nucleus. In DNA-damaged cells, negatively charged DNA fragments are then released from the nucleus and migrate towards the anode. There was no comet-like cell observed in the control group. In comparison, C1-treated cells with longer tails (white arrows) were observed, and a higher percentage, indicating the existence of severe DNA fragmentation (Figure 7B).
The A549 cells were seed into 6-well plates and treated with C1. A mixture of 10 μL cell suspension and 70 μL low-melting-point agarose (1%) were placed on a glass microscope slide (pre-coated with 1% normal-melting-point agarose) and covered with coverslips. The cells were separate by gel electrophoresis, stained with PI, and captured using an inverted fluorescence microscope.

[15] = system: CT-DNA; experiment: EB-DNA fluorescence-quenching assay; type: binding; conditions: C1 0−16 μM, 8 μM EB, 10 μM CT-DNA, pH 7.2 Tris–HCl
Procedure: Competitive studies with ethidium bromide (EB) have been widely used in fluorescence-quenching assays to evaluate the interaction between DNA and small molecules. Therefore, to further explore the binding property of C1 and DNA, fluorescence quenching was carried out to explore the interaction mode.
The fluorescence spectrum was performed to measure the interaction mode of C1 (0−16 μM) and EB-DNA (8 μM ethidium bromide added into 10 μM CT-DNA) in a pH 7.2 Tris–HCl buffer. The EB-DNA was excited at 510 nm, and for the emission spectra, the emission range was set to 530–750 nm. C1 was gradually added to the EB-DNA solution.

[16] = system: A549 cells; experiment: Transwell invasion assay; type: cell-based; conditions: 24 h
Procedure: as §1
The effect of C1 on tumor cell invasiveness was assessed by transwell assay. In brief, the transwell chamber was pre-coated with 70 μL diluted matrigel for 8 h at 37 °C. A549 cells were seeded to the upper chamber, and then C1 was added to the chamber. After 24 h of incubation, the chambers were washed, stained with 0.5% crystal violet for 20 min, and captured using an inverted microscope.

Molecule: 5-chloro-2-N-(2-quinolylmethylene)aminophenoxide-Zn(II)-chloride/pyridine [C2]
- IC50 ([1]; read-out: IC50 A549, MTT assay): 18.3 ± 0.52 µM
- IC50 [2]: 22.8 ± 0.8 µM
- IC50 [3]: 29.3 ± 0.85 µM
- IC50 [4]: 23.6 ± 0.98 µM
- IC50 [5]: 34 ± 1.06 µM

Molecule: [Cl][Cu][O]c1cc(Cl)ccc1N=Cc1ccc2ccccc2n1 [C1, 5-chloro-2-N-(2-quinolylmethylene)aminophenoxide-Cu(II)-chloride]
- IC50 ([1]; read-out: IC50 A549, MTT assay): 3.93 ± 0.28 µM
- Intracellular ROS level [6]: significantly increased
- IC50 [2]: 6.31 ± 0.32 µM
- Effect on migration of A549 cells [7]: strongly inhibited the migration ability of A549 cells
- IC50 [3]: 6.79 ± 0.38 µM
- Population of apoptotic cells ([8]; C1 4 μM): 15.0%
- Population of apoptotic cells ([8]; C1 8 μM): 23.8%
- ΔΨm of A549 cells reduced by (JC-1) [9]: 23.7%
- Percentage of cells in G0/G1 phase ([10]; C1 4 μM): 48.85%
- Percentage of cells in G2/M phase ([10]; C1 4 μM): 7.98%
- Percentage of cells in S phase ([10]; C1 4 μM): 43.17%
- Percentage of cells in G0/G1 phase ([10]; C1 8 μM): 54.45%
- Percentage of cells in G2/M phase ([10]; C1 8 μM): 9.96%
- Percentage of cells in S phase ([10]; C1 8 μM): 35.59%
- IC50 [4]: 5.3 ± 0.35 µM
- Tumor growth inhibition rate ([11]; C1 2.5 mg/kg): 46.3%
- Tumor growth inhibition rate ([11]; C1 5 mg/kg): 63.5%
- Body weight change ([11]; C1 2.5 and 5 mg/kg, vs control group): no apparent weight loss
- Histology of heart, liver, and kidney (H&E staining) ([11]; after treatment with C1): no pathological alterations or other abnormalities
- Apoptosis in tumor tissue (TUNEL staining) ([11]; tumor tissue sections): notable cell apoptosis
- Solubility in saline [12]: ≥ 1.9 mg/mL
- Cell senescence (β-galactosidase staining) [13]: can induce A549 cell senescence
- DNA damage (comet assay) [14]: induces DNA damage
- DNA binding mode (EB displacement) [15]: binds to DNA in an intercalative binding mode
- Effect on invasion of A549 cells [16]: could inhibit the invasion abilities of A549 cells
- IC50 [5]: 10.2 ± 0.43 µM

Molecule: O.O.[Cl][Mn][O]c1cc(Cl)ccc1N=Cc1ccc2ccccc2n1 [C3, 5-chloro-2-N-(2-quinolylmethylene)aminophenoxide-Mn(II)-chloride/dihydrate]
- IC50 ([1]; read-out: IC50 A549, MTT assay): 33.6 ± 0.98 µM
- IC50 [2]: > 40 µM
- IC50 [3]: > 40 µM
- IC50 [4]: > 40 µM
- Solubility in saline [12]: ≥ 0.8 mg/mL
- IC50 [5]: > 40 µM

Molecule: N.N.[Cl][Pt][Cl] [Cisplatin, reference compound]
- IC50 ([1]; read-out: IC50 A549, MTT assay): 12.5 ± 0.45 µM
- IC50 [2]: 15.3 ± 0.51 µM
- IC50 [3]: > 40 µM
- IC50 [4]: 14.5 ± 0.48 µM
- IC50 [5]: 9.61 ± 0.58 µM

Molecule: Oc1cc(Cl)ccc1/N=C/c1ccc2ccccc2n1 [L, 5-chloro-2-N-(2-quinolylmethylene) aminophenol]
- IC50 ([1]; Homo sapiens, A549, read-out: IC50 A549): > 40 µM
- IC50 ([2]; Homo sapiens, HeLa): > 40 µM
- IC50 [3]: > 40 µM
- IC50 ([4]; Homo sapiens, MCF7): > 40 µM
- IC50 ([5]; Homo sapiens, WI-38): > 40 µM
